pIC50: −log10 of the molar value.
What follows are compounds tested against T1, human IRAK-4 (Homo sapiens, UniProt Q9NWZ3) (assay: Phosphorylation IC50 determination for human IRAK-4 (ADP-Glo kinase assay)). Conditions: human IRAK-4, RIP140 substrate, Km ATP; read-out: IRAK4 ADPglo biochemical assay IC50.
T1 construct: purchased Carna Biosciences 09 145
T1 sequence (Q9NWZ3 1-460): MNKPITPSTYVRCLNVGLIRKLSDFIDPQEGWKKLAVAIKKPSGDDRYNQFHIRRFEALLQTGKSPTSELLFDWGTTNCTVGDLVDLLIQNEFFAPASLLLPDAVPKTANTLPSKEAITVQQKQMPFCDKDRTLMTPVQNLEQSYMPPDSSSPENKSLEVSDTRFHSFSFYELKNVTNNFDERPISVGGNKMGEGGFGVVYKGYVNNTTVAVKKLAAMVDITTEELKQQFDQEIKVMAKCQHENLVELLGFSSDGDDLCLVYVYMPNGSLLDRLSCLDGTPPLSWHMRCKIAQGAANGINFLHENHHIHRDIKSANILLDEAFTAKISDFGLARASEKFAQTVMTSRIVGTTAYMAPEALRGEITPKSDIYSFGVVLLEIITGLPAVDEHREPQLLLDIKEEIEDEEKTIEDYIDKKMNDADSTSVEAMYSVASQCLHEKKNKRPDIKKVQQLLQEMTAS
Procedure: 3.1. Phosphorylation IC50 Determination for Human IRAK-4
The phosphorylation of the substrate RIP140 (SEQ ID1) by IRAK4 at Km ATP was detected with the ADP-Glo Kinase Assay (Promega, Cat #V9103), a luminescent kinase assay which measures the ADP formed from a kinase reaction. (Zegzouti et al. 2009) In a second step the kinase reaction was terminated and all the remaining ATP was depleted. In a final step the ADP was converted into ATP and this newly synthesized ATP was measured by using a luciferase/luciferin reaction with a luminescent reader. The luminescent signal positively correlated with kinase activity, in particular kinase inhibition giving a decrease of the luminescent signal.
For the semi-automated assay, the positive control (100% inhibition) was prepared by diluting 10 mM staurosporine stock mixture (20 μL) in water (3.8 mL) and DMSO (180 μL), thus resulting in a […] staurosporine solution at 1% DMSO (final concentration after further dilution in the kinase reaction).
For the automated assay, no pre-dilution of the 10 mM staurosporine stock was made. 10 mM staurosporine was spotted directly in the assay plate using acoustic dispensing and complemented with DMSO to result in a similar final concentration as mentioned above.
For the semi-automated assay, the negative control (0% inhibition) was prepared by mixing water (3.8 mL) and DMSO (200 μL) resulting in a final concentration of 1% DMSO after further dilution in the kinase reaction. For the automated assay no pre-dilution of DMSO was done. 100% DMSO was spotted directly on the assay plate.
The assay buffer solution was prepared at a concentration corresponding to 5 fold the final (most diluted) assay concentration by mixing a solution of 125 mM TRIS pH 7.5+0.05% Triton X-100+2.5 mM EGTA (5.27 mL) with 1M mgCl2 (72 μL), 1M DTT (57.6 μL), and 200 mM MnCl2 (360 μL).
For example, for the semi-automated method, the enzyme-substrate mixture was prepared by mixing water (3999 μL), assay buffer solution (1380 μL), 1 mM RIP140 (138 μL—SEQ ID1), and 200 ng/mL IRAK 4 (3.45 μL Carna Biosciences, 09 145).
For semi-automated method, the ATP mixture was prepared at a concentration corresponding to 2.5 fold the final (most diluted) assay concentration of the semi-automated method and 1.5 fold the final (most diluted) assay concentration of the automated method. For example, for the semi-automated method, the ATP mixture was prepared by mixing water (4126 μL), assay buffer solution (1380 μL), and 10 mM ATP (13.80 μL).
The assay was performed either in a semi-automated or fully automated manner. The assay volume and the incubation time of the ADP detection were different accordingly the method used.
3.1.3.1. Semi-Automated Assay
The compounds were prepared as a serial dilution of 10 point dose responses with 1/5 dilution steps in 100% DMSO starting from 2 mM highest concentration, diluted 1/20 in water. 1 μL was transferred dry to the assay plates.
On each assay plate 32 wells of each control (positive & negative) were added, followed by 2 μL enzyme-substrate mixture.
The reaction was started by adding 2 μL diluted ATP (final concentration Km ATP) on the assay plates. Plates were centrifuged for a few seconds at 1000 rpm followed by an incubation at r.t. for 120 min.
The reactions were stopped and the unconsumed ATP was depleted by adding 5 μL ADP-glo Reagent (Promega, Cat #V9103) to the reaction. The plates were quickly centrifuged at 1000 rpm and incubated at r.t. for 40 min corresponding to full ATP depletion.
The ADP was converted back to ATP and luciferase and luciferin were introduced to detect ATP by adding 10 μL kinase detection reagent (Promega, Cat #V9103) to the reaction. The plates were centrifuged for a few seconds at 1000 rpm and incubated at r.t. for a further 30 min.
Luminescent read out was performed on an Envision luminescent reader (Perkin Elmer). […]

SMILES	pIC50
COc1cc2nc(CCC(C)(C)O)cn2cc1NC(=O)c1cccnc1O [Compound 9, 2-hydroxy-N-[2-(3-hydroxy-3-methyl-butyl)-7-methoxy-imidazo[1,2-a]pyridin-6-yl]pyridine-3-carboxamide]	8.00 to 8.30
COc1cc2nc(CCC(C)(C)O)cn2cc1NC(=O)c1nc(C)ccc1Cl [Compound 11, 3-chloro-N-[2-(3-hydroxy-3-methyl-butyl)-7-methoxy-imidazo[1,2-a]pyridin-6-yl]-6-methyl-pyridine-2-carboxamide]	< 7.30
COc1cc2nc(CCC(C)(C)O)cn2cc1NC(=O)c1cncc(C(F)(F)F)n1 [Compound 17, N-[2-(3-hydroxy-3-methyl-butyl)-7-methoxy-imidazo[1,2-a]pyridin-6-yl]-6-(trifluoromethyl)pyrazine-2-carboxamide]	7.30 to 8.00
CNC(=O)c1cc2nc(CCS(C)(=O)=O)cn2cc1NC(=O)c1cccc(C(F)(F)F)n1 [Compound 30, N-methyl-2-(2-methylsulfonylethyl)-6-[[6-(trifluoromethyl)pyridine-2-carbonyl]amino]imidazo[1,2-a]pyridine-7-carboxamide]	7.30 to 8.00
COc1cc2nc(CCC(C)(C)O)cn2cc1NC(=O)c1ccc(F)c(Cl)n1 [Compound 32, 6-chloro-5-fluoro-N-[2-(3-hydroxy-3-methylbutyl)-7-methoxyimidazo[1,2-a]pyridin-6-yl]pyridine-2-carboxamide]	7.30 to 8.00
CC(C)(O)CCc1cn2cc(NC(=O)c3cccc(C(F)(F)F)n3)c(Br)cc2n1 [Compound 36, N-[7-bromo-2-(3-hydroxy-3-methyl-butyl)imidazo[1,2-a]pyridin-6-yl]-6-(trifluoromethyl)pyridine-2-carboxamide]	8.30 to 10.00
CN1CC(NC(=O)c2cc3nc(CCC(C)(C)O)cn3cc2NC(=O)c2cccc(C(F)(F)F)n2)C1 [Compound 43, 2-(3-hydroxy-3-methylbutyl)-N-(1-methylazetidin-3-yl)-6-(6-(trifluoromethyl)picolinamido)imidazo[1,2-a]pyridine-7-carboxamide]	8.00 to 8.30
CC(C)(O)CCc1cn2cc(NC(=O)c3cccc(C(F)(F)F)n3)c(C(=O)NC3COC3)cc2n1 [Compound 44, 2-(3-hydroxy-3-methylbutyl)-N-(oxetan-3-yl)-6-(6-(trifluoromethyl)picolinamido)imidazo[1,2-a]pyridine-7-carboxamide]	8.00 to 8.30
CC(C)(O)CCc1cn2cc(NC(=O)c3cccc(C(F)(F)F)n3)c(C(=O)NCC3CC3)cc2n1 [Compound 45, N-(cyclopropylmethyl)-2-(3-hydroxy-3-methylbutyl)-6-(6-(trifluoromethyl)picolinamido)imidazo[1,2-a]pyridine-7-carboxamide]	8.00 to 8.30
CC(C)(O)CCc1cn2cc(NC(=O)c3cccc(C(F)(F)F)n3)c(C(=O)NC3(C)CC3)cc2n1 [Compound 46, 2-(3-hydroxy-3-methylbutyl)-N-(1-methylcyclopropyl)-6-(6-(trifluoromethyl)picolinamido)imidazo[1,2-a]pyridine-7-carboxamide]	8.00 to 8.30
CC(C)(O)CCc1cn2cc(NC(=O)c3cccc(C(F)(F)F)n3)c(C(=O)NC3CCOC3)cc2n1 (centres unmarked) [Compound 47, 2-(3-hydroxy-3-methylbutyl)-N-(tetrahydrofuran-3-yl)-6-(6-(trifluoromethyl)picolinamido)imidazo[1,2-a]pyridine-7-carboxamide]	8.00 to 8.30

Source: US20220194938A1, “NOVEL COMPOUNDS AND PHARMACEUTICAL COMPOSITIONS THEREOF FOR THE TREATMENT OF INFLAMMATORY DISORDERS” (GALAPAGOS NV, priority 2019, published 2022)
